Data from patent publication US20030144360A1, “Composition and method for modulating BAR/FXR receptor activity” (Allergan Sales, Inc., priority 2001, published 2003).

Tests used:
[1] = molecular target: T1, BAR:RXR heterodimers (UniProt P19793+Q62735); assay: Co-activator (GRIP1) gel shift displacement assay, BAR:RXR heterodimer; type: binding
T1 construct: nucleic acid regions encoding the following full-length proteins were cloned into a CMV expression vector; made in house; host or cells: receptors: in vitro translation; GST-GRIP1: E. coli
T1 sequence (Q62735 1-469): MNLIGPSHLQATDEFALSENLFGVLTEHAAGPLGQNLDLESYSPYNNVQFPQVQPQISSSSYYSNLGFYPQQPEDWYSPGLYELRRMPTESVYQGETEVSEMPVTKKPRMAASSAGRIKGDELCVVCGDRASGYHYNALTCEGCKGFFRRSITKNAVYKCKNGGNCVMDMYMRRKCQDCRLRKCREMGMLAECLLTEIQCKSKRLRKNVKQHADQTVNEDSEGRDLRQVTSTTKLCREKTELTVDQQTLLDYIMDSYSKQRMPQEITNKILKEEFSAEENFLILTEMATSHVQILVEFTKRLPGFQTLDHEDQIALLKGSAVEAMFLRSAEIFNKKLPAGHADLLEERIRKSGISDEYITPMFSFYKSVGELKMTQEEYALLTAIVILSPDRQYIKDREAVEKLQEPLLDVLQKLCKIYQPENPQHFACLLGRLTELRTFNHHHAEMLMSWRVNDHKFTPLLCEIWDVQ
T1 sequence (P19793 1-462): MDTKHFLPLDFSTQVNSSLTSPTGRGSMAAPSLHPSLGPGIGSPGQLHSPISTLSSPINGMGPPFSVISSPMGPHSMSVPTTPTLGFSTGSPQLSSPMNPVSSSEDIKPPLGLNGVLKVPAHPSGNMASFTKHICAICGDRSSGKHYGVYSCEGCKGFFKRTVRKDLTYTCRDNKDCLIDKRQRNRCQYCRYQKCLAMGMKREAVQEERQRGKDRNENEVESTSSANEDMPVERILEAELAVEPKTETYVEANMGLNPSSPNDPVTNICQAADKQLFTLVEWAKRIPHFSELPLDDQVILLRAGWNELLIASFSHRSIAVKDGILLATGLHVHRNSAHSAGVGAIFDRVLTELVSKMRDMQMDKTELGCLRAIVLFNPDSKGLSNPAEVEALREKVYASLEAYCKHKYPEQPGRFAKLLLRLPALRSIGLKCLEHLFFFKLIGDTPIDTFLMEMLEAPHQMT
From the text: Coactivators, which bind agonist-activated nuclear receptors including, without limitation, RAR and RXR, function to assist the activated nuclear receptor exert its activity as a transcription factor. Characterized co-activators include CBP, p300, RIP140, SRC-1, ACTR, TIF2 (also called GRIP 1) and TIFI. In most cases coactivator will not bind the receptor in the absence of an agonist, moreover, receptor antagonists will often block coactivator binding, either directly or through the recruitment of a corepressor. Coactivator recruitment assays are therefore a valuable method for directly visualizing associative changes to a receptor caused by the addition of a prospective ligand.
GRIP 1 was expressed as a fusion protein with glutathione-S-transferase, an enzyme which selectively binds glutathione and can thus be used as an affinity reagent. See e.g., U.S. Pat. No. 5,654,176. The GST-GRIP1 fusion protein was expressed in E. coli and purified on glutathione-Sepharose columns. In vitro translated BAR/FXR\RXR (0.6-1.2 μl each) and GST-GRIP 1 (5 μg) were incubated for 30 min at room temperature with 100,000 cpm of the E. coli DNA polymerase Klenow fragment-labeled probes in 10 mM Tris (pH 8.0), 50 mM KCl, 6% glycerol, 0.05% NP-40, 1 mM DTT, 12.5 ng/μl poly dI-dC, and the indicated ligands. Complexes were electrophoresed through 5% polyacrylamide gel in […] (45 mM Tris-base, 45 mM boric acid, 1 mM EDTA) at room temperature. Oligonucleotide probes were made to identify specific receptor dimers; an optimized DR-1 (direct repeat 1; a nucleotide sequence motif to which RXR will bind) probe (5′-[…]) (SEQ ID NO: 12) was used for RXR homodimers and the IR-1 sequence of the IBABP promoter, to which the BAR/RXR heterodimer binds, was used for BAR/RXR heterodimers.
We next tested the ability of AGN34 to displace the GRIP-1 co-activator from BAR. […] Competition experiments using the BAR/RXRm heterodimer binds yielded the same results as obtained using the BAR/RXR heterodimer. (FIG. 4D).

[2] = molecular target: T2, Gal-L-RAR (Homo sapiens, UniProt P10276); assay: Gal-L-RAR fusion with Gal 4 reporter (MH100×4) in CV-1 cells; type: cell-based; settings: 5 μM
T2 construct: expressed in transfected cells; host or cells: CV-1
T2 sequence (P10276 156-462 limits assumed): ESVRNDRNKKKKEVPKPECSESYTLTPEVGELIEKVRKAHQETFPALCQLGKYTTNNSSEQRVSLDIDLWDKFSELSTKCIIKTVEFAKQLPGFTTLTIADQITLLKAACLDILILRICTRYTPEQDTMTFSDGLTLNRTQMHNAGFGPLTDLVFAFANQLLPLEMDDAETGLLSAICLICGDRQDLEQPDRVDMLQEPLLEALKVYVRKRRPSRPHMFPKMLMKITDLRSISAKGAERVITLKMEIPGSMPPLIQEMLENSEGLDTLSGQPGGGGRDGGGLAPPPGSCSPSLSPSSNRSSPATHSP
Experimental: The nucleic acid regions encoding the following full-length proteins were cloned into a CMV expression vector. […] The βgal contains the E. coli P-galactosidase coding sequences derived from pCH110 (accession #U02445). RXRm contains a single point mutation (Asp-322-Pro) in the LBD of human RXRα.
CV-1 African Green Monkey cells were grown in Dulbecco's Modified Eagle's medium supplemented with 10% resin-charcoal stripped fetal bovine serum (FBS), 50 U/ml penicillin G and 50 μg/ml streptomycin sulfate (DMEM-FBS) at 37° C. in 5% CO2. One day prior to transfection, cells were plated to 50-80% confluence using phenol red-free DMEM-FBS. […]
The harvested cells were assayed for the presence of luciferase activity. […] Luciferase activity was measured by reaction of the cell lysates with luciferin in a reaction buffer comprising: 20 mM tricine, 1.07 mM Mg(CO3)4-Mg(OH)2-5H2O, 2.67 mM MgSO4.7H2O, 0.1 mM EDTA, 0.5 mM Sodium luciferin, 0.15 mg/ml Coenzyme A, 5 mM DTT, and 0.5 mM adenosine triphosphate (ATP). Resulting chemiluminescence was measured in a luminometer. […]
The transfected cells were then treated with the indicated ligands for 40 hours. Activity was measured using luciferase expression in the cotransfection assay described above. […] Thus, Gal-L-RAR or Gal-L-RXR fusions were transfected into CV-1 cells with a Gal 4 reporter (MH100×4) and the effect of different ligands was evaluated.

[3] = molecular target: T3, BAR:RXR heterodimer (Homo sapiens, UniProt P19793+Q96RI1); assay: Mammalian two hybrid assay detecting recruitment of CoA; type: cell-based
T3 construct: expressed in transfected cells
T3 sequence (Q96RI1 1-486): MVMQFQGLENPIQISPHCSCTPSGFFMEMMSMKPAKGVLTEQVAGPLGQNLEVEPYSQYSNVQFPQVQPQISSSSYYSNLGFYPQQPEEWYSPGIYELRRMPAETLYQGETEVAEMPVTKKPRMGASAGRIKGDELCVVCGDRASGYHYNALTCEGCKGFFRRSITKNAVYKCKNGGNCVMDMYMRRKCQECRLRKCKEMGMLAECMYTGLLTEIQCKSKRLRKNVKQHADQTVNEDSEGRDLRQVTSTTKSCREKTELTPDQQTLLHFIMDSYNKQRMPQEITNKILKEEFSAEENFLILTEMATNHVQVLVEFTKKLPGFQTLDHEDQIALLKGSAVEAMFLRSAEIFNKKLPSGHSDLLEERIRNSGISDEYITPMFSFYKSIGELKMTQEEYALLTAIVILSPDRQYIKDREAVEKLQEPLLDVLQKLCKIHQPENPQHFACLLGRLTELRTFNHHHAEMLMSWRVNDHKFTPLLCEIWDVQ
T3 sequence (P19793 1-462): T1 sequence (P19793 1-462)

Cc1cc2c(cc1/C(=C/c1ccc(C(=O)O)cc1)[Si](C)(C)C)C(C)(C)CCC2(C)C [AGN 29, (Z)-4-[2-(3,5,5,8,8-Pentamethy1-5,6,7,8-tetrahydronaphthalen-2-yl)-2-(trimethylsilyl)vinyl]benzoic Acid]
formation of BAR:RXR:GRIP1 complex ([1]; 0.75 μM): form a complex
activation of RAR [2]: loss of specificity for RAR

CCCC/C(=C\c1ccc(C(=O)O)cc1)c1ccc2c(c1)C(C)(C)CCC2(C)C [AGN 31, 4-[2-(5,5,8,8-Tetramethyl-5,6,7,8-tetrahydronaphthalen-2-yl)hex-1-enyl]benzoic Acid]
activation of RAR [2]: loss of specificity for RAR

CCCCCCOc1c(\C(C)=C/C=C/C(C)=C/C(=O)O)cc(C(C)C)cc1C(C)C [AGN 34, (2E, 4E, 6Z)-7-(2-Hexyloxy-3,5-diisopropylphenyl)-3-methylocta-2,4,6-trienoic Acid]
doses for full displacement of co-activator, LG 268 versus RXR:BAR-CDCA complexes [1]: Much lower doses
dissociation of BAR:RXR:GRIP1 complex ([1]; 0.75 μM AGN 29 as agonist, increasing concentrations of AGN 34): progressive dissociation of that complex
displacement of co-activator (GRIP1) ([1]; heterodimers in which LG 268 was added): fully displaces
recruitment of CoA [3]: inhibits recruitment
